In patent US9475806B2, “Complement factor B inhibitors and uses there of” (Novartis AG, priority 2013, dated 2016):
Read-outs that look alike come from different tables or passages of the source.

Legend:
[1] = biological target: T1, Recombinant human factor B (Homo sapiens (Human), UniProt P00751); assay: biochemical
[2] = biological target: T1, Recombinant human factor B

T1 sequence (P00751 26-764): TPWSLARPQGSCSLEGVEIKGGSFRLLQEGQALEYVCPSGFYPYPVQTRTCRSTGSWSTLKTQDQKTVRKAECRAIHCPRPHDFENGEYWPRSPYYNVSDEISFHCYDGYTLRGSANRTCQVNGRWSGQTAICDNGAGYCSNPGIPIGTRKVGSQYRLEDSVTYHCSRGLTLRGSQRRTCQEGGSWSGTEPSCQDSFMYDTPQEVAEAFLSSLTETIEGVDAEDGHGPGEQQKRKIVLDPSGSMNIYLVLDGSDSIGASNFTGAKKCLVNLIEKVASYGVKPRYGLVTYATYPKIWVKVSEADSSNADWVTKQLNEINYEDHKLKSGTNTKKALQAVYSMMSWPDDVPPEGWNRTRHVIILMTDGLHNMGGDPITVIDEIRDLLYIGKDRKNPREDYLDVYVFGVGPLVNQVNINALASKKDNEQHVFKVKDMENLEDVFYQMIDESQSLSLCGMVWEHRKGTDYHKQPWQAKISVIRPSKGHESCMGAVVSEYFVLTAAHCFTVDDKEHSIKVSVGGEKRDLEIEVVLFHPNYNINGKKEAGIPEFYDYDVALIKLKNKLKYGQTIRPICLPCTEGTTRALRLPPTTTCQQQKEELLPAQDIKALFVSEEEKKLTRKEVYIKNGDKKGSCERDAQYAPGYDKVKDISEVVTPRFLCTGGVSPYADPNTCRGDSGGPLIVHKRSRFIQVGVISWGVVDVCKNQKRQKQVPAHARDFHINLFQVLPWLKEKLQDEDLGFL

Row | SMILES | IC50 [1] [nM] | IC50 [2] [nM]
1 | Cc1cc(C2CC2)c(C(C)(O)c2nc3cc(C#N)cnc3[nH]2)c2cc[nH]c12 (racemic) [Example 17-C, (±)-2-(1-(5-Cyclopropyl-7-methyl-1H-indol-4-yl)-1-hydroxyethyl)-3H-imidazo[4,5-b]pyridine-6-carbonitrile] | 60 | –
2 | COc1cc(C)c2[nH]ccc2c1C(N)(c1nc2cc(C#N)cnc2[nH]1)C(F)(F)F (stereo not drawn) [5-B b) (+)] | – | 290
3 | Cc1cc(C2CC2)c(C(O)c2nc3cc(C#N)cnc3[nH]2)c2cc[nH]c12 (racemic) [Example 16-G, (±)-2-((5-Cyclopropyl-7-methyl-1H-indol-4-yl)(hydroxy)methyl)-3H-imidazo[4,5-b]pyridine-6-carbonitrile] | 460 | –
4 | COc1cc(C)c2[nH]ccc2c1C(C)(OC)c1nc2cc(C#N)cnc2[nH]1 (stereo not drawn) [8-B b) (+)] | – | 720
5 | COc1cc(C)c2[nH]ccc2c1C(O)c1nc2ncc(C#N)cc2[nH]1 (stereo not drawn) [6-C b) (+)] | – | 700
6 | COc1cc(C)c2[nH]ccc2c1C(C)(O)c1nc2cc(C#N)cnc2[nH]1 (stereo not drawn) [7-D b) (+)] | – | 50
7 | CNC(C)(c1nc2cc(C#N)cnc2[nH]1)c1c(OC)cc(C)c2[nH]ccc12 (stereo not drawn) [11-B b) (+)] | – | 3140
8 | COc1cc(C)c2[nH]ccc2c1C(C)(N)c1nc2cc(C#N)cnc2[nH]1 (stereo not drawn) [10-B b) (+)] | – | 1380
9 | COc1cc(C)c2[nH]ccc2c1C(C)(C)c1nc2cc(C#N)cnc2[nH]1 [Example 12-D, 2-(2-(5-Methoxy-7-methyl-1H-indol-4-yl)propan-2-yl)-3H-imidazo[4,5-b]pyridine-6-carbonitrile] | 40 | –
10 | Cc1cc(C2CC2)c(C(N)(c2nc3cc(C#N)cnc3[nH]2)C(F)(F)F)c2cc[nH]c12 (racemic) [Example 17-G, (±)-2-(1-Amino-1-(5-cyclopropyl-7-methyl-1H-indol-4-yl)-2,2,2-trifluoroethyl)-3H-imidazo[4,5-b]pyridine-6-carbonitrile] | 90 | –
11 | CNC(c1nc2cc(C#N)cnc2[nH]1)(c1c(OC)cc(C)c2[nH]ccc12)C(F)(F)F (stereo not drawn) [9-D b) (+)] | – | 1520
12 | CCc1cc(C)c2[nH]ccc2c1C(C)(NC)c1nc2cc(C#N)cnc2[nH]1 (racemic) [Example 15-D, (±)-2-(1-(5-Ethyl-7-methyl-1H-indol-4-yl)-1-(methylamino)ethyl)-3H-imidazo[4,5-b]pyridine-6-carbonitrile] | 540 | –
13 | CCc1cc(C)c2[nH]ccc2c1C(O)(c1nc2cc(C#N)cnc2[nH]1)C(F)(F)F (stereo not drawn) [14-I b) (+)] | – | 2350
